Like-named read-outs stand apart in the source and are kept apart here.
Experiments:
gestating ICR mice = assay: in vivo teratology study, single oral dose on day 11 of gestation; parameters: species or system mouse; details: female, ICR, mouse, in vivo, 17 day of gestation; for # Litters Normal / Teratogenic Effects % Cleft Palate / Teratogenic Effects % Limb Defects / Teratogenic Effects % Resorbed: po
Protocol: The methodology of the study is described as follows:
ICR mice (Ace Animals, Boyertown, Pa.) were used. Mature male and virgin female ICR mice were housed in environmentally controlled rooms and acclimatized to a 12 hour light/dark cycle (light cycle 6 A.M. to 6 P.M.) for 2 weeks prior to use. All animals were maintained on Purina Lab Chow and tap water ad libitum. A group of 3-4 females was caged with a single male of proven fertility for 4 hours. Presence of a vaginal plug immediately afterward was regarded as evidence of successful mating, and this day was designated as day 0 of gestation.
[…] All animals were killed by cervical dislocation under mild ether anesthesia on day 17 of gestation. Upon laparotomy, the fetuses were examined for external malformations and weighed; one-half of each litter was then fixed in 95% ethanol and processed for staining of the skeleton by the rapid, alizarin red-S dye method. These preparations were examined under a dissection microscope to screen for abnormalities in the axial and the appendicular skeleton. The other half of each litter was fixed in Bouin's solution and examined by freehand razor serial sectioning to screen for anomalies of the brain, face, and palate.
Differences in dose-related incidence of malformations and resorptions were assessed by computing percentages of affected conceptuses among total implantation sites. The groups were compared statistically by a method based on Student's t-tests of arcs in square root transformed percentages. Values at 0.05 probability level were considered significant. The median effective dose was calculated by logarithmic curve fitting of the dose-response data.

human sebocyte cultures = assay: human sebocyte culture 3H-thymidine incorporation (DNA synthesis, anti-proliferative effect); format: cell-based; details: human sebocytes, 8 days treatment, FIG. 2
Source text: The retinoid like activity of the compounds used in accordance with the method of treatment of the present invention and of the novel compounds of the invention can be confirmed by several assay procedures. An assay involving human sebocyte cultures measures the inhibition of ^3H-thymidine into cells, and thus measures inhibition of DNA synthesis and thus an anti-proliferative effect on sebocyte (i.e. a sebostatic effect). This assay is also considered a specific assay for effectiveness of a compound as a potential anti-acne drug. The test is conducted as follows.
Face-lift or forehead reduction skins from cosmetic surgeries were used as sources of human sebaceous gland cells (sebocytes).
Isolated sebocytes were plated in type 1 collagen coated-dishes in DMEM/F12 (1:1) medium supplemented with 8% fetal bovine serum, 2% human serum, 10 ng/ml epidermal growth factor, 1 nM cholera toxin, 1 μM hydrocortisone, and penicillin/streptomycin/amphotericin B. Secondary cultures were prepared by plating Dispase dissociated cells in collagen coated 24-well plates.
Sub-confluent secondary cultures were treated with the test compounds or ethanol vehicle every 2-3 days for 8 days in the above medium from which the total serum concentration was reduced to 2% and hydrocortisone was not included. During the last 6 hours of treatment, the cultures were labeled with 2 μCi/ml ^3H-thymidine. DNA from the cells were extracted by thichoroacetic acid and perchloric acid, and assayed for radioactivity by scintillation counting and for content of DNA by the diphenylamine calorimetric method. The results were expressed as CPM/μg DNA, or as per cent of vehicle control which incorporated about 1,000-1,500 cpm/μg DNA.

[1] = test system: tissue transglutaminase (tTGASE) in HL-60 cells; assay: Tissue Transglutaminase Assay (tTGASE) in HL-60 Cells; format: cell-based; details: FIGS. 6-9
Protocol: Other assays in which the retinoid like activity of the compounds used in accordance with the invention are confirmed are the HL-60 transglutaminase induction and HL-60 differentiation assay, the procedures of which are described as follows.
HL-60 cells were grown as a suspension culture in T-162 cm^2 flasks in serum-free RPMI 1640 medium supplemented with insulin (5 μg/ml), transferrin (5 μg/ml), and selenium (3 nM). The cells (1×10^6 cells/well, in 6-well dishes) were treated with serial dilutions of test compounds in the above RPMI 1640 medium which was additionally supplemented with […] dibutyryl cyclic adenosine monophosphate, a component found to be necessary for efficient differentiation of the cells. Ethanol was used in the vehicle control cultures. After 1 days of incubation at 37° C. in a 7.5% CO2 incubator, the cells were collected in a set of tubes and pelleted by centrifugation. The cells were lyzed in a buffer containing 20 mM Tris-HCl, pH 7.5, 1 mM EDTA, and 0.5% Triton X-100. An aliquot of the cell lysate was assayed for tTGASE activity in a reaction mixture containing 20 mM Tris-HCl, pH 7.5, 5 mM CaCl2, 2 mg/ml dimethylcasein, 15 mM B-mercaptoethanol and 50 μCi/ml [2,3-^3H] putrescine dihydrochloride. The reaction was carried out for 60 minutes in a 37° C. shaking water bath. The reaction was stopped by an addition of 10% trichloroacetic acid containing 0.1% putrescein. An aliquot of the stopped reaction mixture was spotted on Whatman 3 MM filter discs. The filter discs, along with the control blank filter discs, were washed twice with 5% trichloroacetic acid containing 0.1% putrescein and twice with methanol. After drying under a heat lamp, the radioactivity in the filter discs was determined by scintillation counting. An aliquot of the cell lysates was also assayed for […] by the Bradford method (Bio-Rad). After subtracting the radioactivity from the control blank filter discs, the data were calculated and expressed as pmol/min/mg protein.
As is well understood in the art, induction of tranglutaminase activity in the just-described assay is an early marker of retinoid like activity.

female hairless mice = format: in vivo; details: animals died from a group of 5
Protocol: Specifically, tests to determine skin toxicity were performed on certain examplary compounds in accordance with the present invention, and on certain analogous compounds which lack the R3 substituent in accordance with Formula 1, 2 or 3. A “Two Week Acute Skin Toxicity Study of Multiple Topical Applications in Female Hairless Mice” is conducted as follows: a daily dose (expressed in nanomoles) of the “test compound” is applied to the skin on the back of hairless mice (usually a test group of 5 mice for a given compound). The daily dose of the test compound is applied for 5 consecutive days, followed by two days when the test compound is not administered, and is thereafter administered again for 4 more consecutive days. On the 14th day the test animals if still alive, are sacrificed to perform certain studies and tests. In the meanwhile certain tests and observations are made on a daily basis with respect to body weight and skin condition. Skin condition is graded as “flaking/scaling” and “abrasion” on a scale of 0 to +5 where the various numbers correspond to the following observations.
Results of these tests are summarized in Table 3, where daily dose is expressed in nanomoles, weight loss of the test animals is in percentages at the end of the 14 day test period, or at the time the test animal expired, and mortality is expressed with the number of animals which died from a group of 5.

C/C(=C\c1ccc(C(=O)O)cc1)c1ccc2c(c1)C(C)(C)CCC2(C)C [AGN 191183, reference compound]
litters that exhibited teratogenic effects (gestating ICR mice; 0.1 mg/kg): 100% | # Litters Normal (gestating ICR mice; 0.01 mg/kg): 2 | Teratogenic Effects % Cleft Palate (gestating ICR mice; 0.01 mg/kg): 29% | Teratogenic Effects % Limb Defects (gestating ICR mice; 0.01 mg/kg): 20% | Teratogenic Effects % Resorbed (gestating ICR mice; 0.01 mg/kg): 3% | # Litters Normal (gestating ICR mice; 0.1 mg/kg): 0 | Teratogenic Effects % Cleft Palate (gestating ICR mice; 0.1 mg/kg): 100% | Teratogenic Effects % Limb Defects (gestating ICR mice; 0.1 mg/kg): 100% | Teratogenic Effects % Resorbed (gestating ICR mice; 0.1 mg/kg): 30% | # Litters Normal (gestating ICR mice; 1 mg/kg): 0 | Teratogenic Effects % Resorbed (gestating ICR mice; 1 mg/kg): 100% | # Litters Normal (gestating ICR mice; 10 mg/kg): 0 | Teratogenic Effects % Resorbed (gestating ICR mice; 10 mg/kg): 100% | inhibition of 3H-thymidine incorporation (effectiveness in sebocyte assay) (human sebocyte cultures): not effective | induction of transglutaminase activity [1]: inactive | Death/Total (female hairless mice; daily dose 7.5 nanomoles topical): 0/5 | Death/Total (female hairless mice; daily dose 25 nanomoles topical): 0/5 | Death/Total (female hairless mice; daily dose 75 nanomoles topical): 5/5 | Death/Total (female hairless mice; daily dose 80 nanomoles topical): 5/5
